In US5109011A, “P-acylaminophenoxycarbamates and derivatives” (Hoechst-Roussel Pharmaceuticals Incorporated, priority 1990, dated 1992):

The molecules below were run on phenyl-para-quinone induced writhing (assay: phenyl-para-quinone writhing assay in mice (analgesia)). Details: Mus musculus, oral, read-out: Analgesic Activity ED50 (oral dose at which 50% of the phenyl-para-quinone induced writhing is inhibited).
Format: in vivo
Text: Exptl. Biol. Med., 95,729 (1957)]. Presented in Table I is the analgesic effect of some of the compounds of the invention expressed as the oral dose at which 50% of the phenyl-para-quinone induced writhing is inhibited in the animals, i.e., the ED50 value.

| Structure (SMILES) | ED50 [mg/kg] |
| --- | --- |
| CC(=O)Nc1ccc(OC(=O)N(C)OCc2ccccc2)cc1 [4-(acetylamino)phenyl-N-benzyloxy-N-methyl carbamate] | 28.5 |
| CC(=O)Nc1ccc(OC(=O)N(C)O)cc1 [4-(Acetylamino)phenyl-N-hydroxy-N-methyl carbamate] | 32.3 |
| CC(=O)Nc1ccc(OC(=O)N(C)OC(C)=O)cc1 [4-(Acetylamino)phenyl-N-(acetyloxy)-N-methyl carbamate] | 42.7 |
| CC(=O)Nc1ccc(O)cc1 [Acetaminophen, reference compound] | 33.8 |
